In paper PMC6149898, “GPCR Modulation of Thieno[2,3-b]pyridine Anti-Proliferative Agents” (Molecules : A Journal of Synthetic Chemistry and Natural …, 2017):

Experiments:
HRH3 = HRH3 (Homo sapiens, UniProt Q9Y5N1); assay: gpcrMAX PathHunter beta-arrestin
OPRK1 = OPRK1 (Homo sapiens, UniProt P41145); assay: gpcrMAX PathHunter beta-arrestin
PTAFR = PTAFR (Homo sapiens, UniProt P25105); assay: gpcrMAX PathHunter beta-arrestin
CCR6 = CCR6 (Homo sapiens, UniProt P51684); assay: gpcrMAX PathHunter beta-arrestin
CNS:SF-295 = tested on: CNS:SF-295; design: method as in earlier work; conditions: NCI-60 panel; ref [4],[5],[6],[7]; cited from earlier work
ADRA2B = ADRA2B (Homo sapiens, UniProt P18089); assay: gpcrMAX PathHunter beta-arrestin
GPR1 = GPR1 (Homo sapiens, UniProt P46091); assay: gpcrMAX PathHunter beta-arrestin
GPR109A = GPR109A (Homo sapiens, UniProt Q8TDS4); assay: gpcrMAX PathHunter beta-arrestin
ME:MDA-MB-435 = tested on: ME:MDA-MB-435; design: method as in earlier work; conditions: NCI-60 panel; ref [4],[5],[6],[7]; cited from earlier work
SSTR1 = SSTR1 (Homo sapiens, UniProt P30872); assay: gpcrMAX PathHunter beta-arrestin
CALCRL-RAMP2 = CALCRL-RAMP2 (Homo sapiens, UniProt O60895+Q16602); assay: gpcrMAX PathHunter beta-arrestin
AVPR1B = AVPR1B (Homo sapiens, UniProt P47901); assay: gpcrMAX PathHunter beta-arrestin
CO:KM12 = tested on: CO:KM12; design: method as in earlier work; conditions: NCI-60 panel; ref [4],[5],[6],[7]; cited from earlier work
CXCR1 = CXCR1 (Homo sapiens, UniProt P25024); assay: gpcrMAX PathHunter beta-arrestin
PTGIR = PTGIR (Homo sapiens, UniProt P43119); assay: gpcrMAX PathHunter beta-arrestin
ME:SK-MEL-5 = tested on: ME:SK-MEL-5; design: method as in earlier work; conditions: NCI-60 panel; ref [4],[5],[6],[7]; cited from earlier work
EDG1 = EDG1 (Homo sapiens, UniProt P21453); assay: gpcrMAX PathHunter beta-arrestin
OPRM1 = OPRM1 (Homo sapiens, UniProt P35372); assay: gpcrMAX PathHunter beta-arrestin
OV:OVCAR-5 = tested on: OV:OVCAR-5; design: method as in earlier work; conditions: NCI-60 panel; ref [4],[5],[6],[7]; cited from earlier work
FPR1 = FPR1 (Homo sapiens, UniProt P21462); assay: gpcrMAX PathHunter beta-arrestin
CNR1 = CNR1 (Homo sapiens, UniProt P21554); assay: gpcrMAX PathHunter beta-arrestin
F2RL3 = F2RL3 (Homo sapiens, UniProt Q96RI0); assay: gpcrMAX PathHunter beta-arrestin
GCGR = GCGR (Homo sapiens, UniProt P47871); assay: gpcrMAX PathHunter beta-arrestin
LE:HL-60(TB) = tested on: LE:HL-60(TB); design: method as in earlier work; conditions: NCI-60 panel; ref [4],[5],[6],[7]; cited from earlier work
HTR1E = HTR1E (Homo sapiens, UniProt P28566); assay: gpcrMAX PathHunter beta-arrestin
LC:NCI-H522 = tested on: LC:NCI-H522; design: method as in earlier work; conditions: NCI-60 panel; ref [4],[5],[6],[7]; cited from earlier work
PTGFR = PTGFR (Homo sapiens, UniProt P43088); assay: gpcrMAX PathHunter beta-arrestin

GPR109A, sequence (Q8TDS4 whole entry): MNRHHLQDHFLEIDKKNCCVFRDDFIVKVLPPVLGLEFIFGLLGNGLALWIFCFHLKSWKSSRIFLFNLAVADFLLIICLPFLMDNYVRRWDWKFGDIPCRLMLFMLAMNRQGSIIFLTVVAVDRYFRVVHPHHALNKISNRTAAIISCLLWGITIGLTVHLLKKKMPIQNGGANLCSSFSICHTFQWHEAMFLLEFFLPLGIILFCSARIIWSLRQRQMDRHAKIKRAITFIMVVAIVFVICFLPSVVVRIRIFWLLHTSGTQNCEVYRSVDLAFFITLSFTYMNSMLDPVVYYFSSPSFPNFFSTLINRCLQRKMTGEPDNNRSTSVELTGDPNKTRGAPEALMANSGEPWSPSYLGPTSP
HTR1E, sequence (P28566 whole entry): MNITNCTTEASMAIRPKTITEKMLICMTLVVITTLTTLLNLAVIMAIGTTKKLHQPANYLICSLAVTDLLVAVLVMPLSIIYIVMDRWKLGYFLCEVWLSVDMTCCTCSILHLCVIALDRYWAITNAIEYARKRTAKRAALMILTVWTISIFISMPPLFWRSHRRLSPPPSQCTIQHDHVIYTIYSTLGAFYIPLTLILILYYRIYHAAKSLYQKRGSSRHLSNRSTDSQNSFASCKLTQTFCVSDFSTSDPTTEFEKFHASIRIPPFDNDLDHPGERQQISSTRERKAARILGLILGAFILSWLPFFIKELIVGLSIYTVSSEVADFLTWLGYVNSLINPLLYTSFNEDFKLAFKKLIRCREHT
CXCR1, sequence (P25024 whole entry): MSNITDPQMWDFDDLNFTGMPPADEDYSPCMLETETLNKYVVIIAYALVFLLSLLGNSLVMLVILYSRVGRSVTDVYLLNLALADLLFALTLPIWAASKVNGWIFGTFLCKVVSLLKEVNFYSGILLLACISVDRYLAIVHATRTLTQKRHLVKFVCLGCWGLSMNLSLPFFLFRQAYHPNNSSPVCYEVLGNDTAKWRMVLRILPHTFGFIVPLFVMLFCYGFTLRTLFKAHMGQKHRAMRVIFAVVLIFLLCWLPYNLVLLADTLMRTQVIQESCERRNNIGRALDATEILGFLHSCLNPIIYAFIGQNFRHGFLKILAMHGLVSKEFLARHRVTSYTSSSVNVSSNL
CALCRL-RAMP2, sequence (Q16602 23-461): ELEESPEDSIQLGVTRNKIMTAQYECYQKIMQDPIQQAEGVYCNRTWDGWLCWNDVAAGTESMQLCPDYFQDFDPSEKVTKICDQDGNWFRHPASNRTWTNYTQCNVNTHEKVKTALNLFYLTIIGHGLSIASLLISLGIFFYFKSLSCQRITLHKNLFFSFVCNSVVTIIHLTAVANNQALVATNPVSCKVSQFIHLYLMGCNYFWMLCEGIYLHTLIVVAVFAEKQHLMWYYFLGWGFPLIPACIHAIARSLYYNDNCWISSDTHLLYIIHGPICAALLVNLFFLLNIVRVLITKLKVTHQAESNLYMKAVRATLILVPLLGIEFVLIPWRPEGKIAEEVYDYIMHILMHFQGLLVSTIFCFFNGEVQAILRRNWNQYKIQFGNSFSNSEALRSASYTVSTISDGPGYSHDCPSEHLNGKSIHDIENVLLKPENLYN
CALCRL-RAMP2, sequence (O60895 43-175 partner): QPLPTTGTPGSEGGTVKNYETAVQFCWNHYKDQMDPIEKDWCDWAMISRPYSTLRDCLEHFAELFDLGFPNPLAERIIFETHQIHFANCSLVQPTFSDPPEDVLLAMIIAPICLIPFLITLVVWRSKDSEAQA
CNR1, sequence (P21554 whole entry): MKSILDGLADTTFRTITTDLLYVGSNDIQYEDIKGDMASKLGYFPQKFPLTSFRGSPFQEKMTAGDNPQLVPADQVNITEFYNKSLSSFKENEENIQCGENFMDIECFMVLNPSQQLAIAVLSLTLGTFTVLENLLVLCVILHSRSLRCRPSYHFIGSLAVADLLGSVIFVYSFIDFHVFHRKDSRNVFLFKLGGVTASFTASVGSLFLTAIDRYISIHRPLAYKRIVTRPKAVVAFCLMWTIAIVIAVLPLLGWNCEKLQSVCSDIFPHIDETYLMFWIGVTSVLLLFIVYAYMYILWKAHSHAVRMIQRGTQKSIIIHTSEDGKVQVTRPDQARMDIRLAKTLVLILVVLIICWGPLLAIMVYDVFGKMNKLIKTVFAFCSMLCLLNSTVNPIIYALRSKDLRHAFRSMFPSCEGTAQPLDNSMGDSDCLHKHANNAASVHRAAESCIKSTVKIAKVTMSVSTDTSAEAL
ADRA2B, sequence (P18089 whole entry): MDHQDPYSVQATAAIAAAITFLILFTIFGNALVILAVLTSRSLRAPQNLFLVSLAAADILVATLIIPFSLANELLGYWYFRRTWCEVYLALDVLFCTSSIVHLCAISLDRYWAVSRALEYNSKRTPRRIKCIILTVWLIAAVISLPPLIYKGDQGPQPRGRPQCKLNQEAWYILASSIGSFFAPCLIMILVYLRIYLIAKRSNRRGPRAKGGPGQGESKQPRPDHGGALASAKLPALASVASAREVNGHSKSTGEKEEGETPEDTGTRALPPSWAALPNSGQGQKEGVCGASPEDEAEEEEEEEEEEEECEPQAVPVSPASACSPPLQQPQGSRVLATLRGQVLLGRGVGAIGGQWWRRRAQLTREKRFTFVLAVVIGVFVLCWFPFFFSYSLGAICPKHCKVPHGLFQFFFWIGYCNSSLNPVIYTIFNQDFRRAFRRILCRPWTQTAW
GCGR, sequence (P47871 26-477): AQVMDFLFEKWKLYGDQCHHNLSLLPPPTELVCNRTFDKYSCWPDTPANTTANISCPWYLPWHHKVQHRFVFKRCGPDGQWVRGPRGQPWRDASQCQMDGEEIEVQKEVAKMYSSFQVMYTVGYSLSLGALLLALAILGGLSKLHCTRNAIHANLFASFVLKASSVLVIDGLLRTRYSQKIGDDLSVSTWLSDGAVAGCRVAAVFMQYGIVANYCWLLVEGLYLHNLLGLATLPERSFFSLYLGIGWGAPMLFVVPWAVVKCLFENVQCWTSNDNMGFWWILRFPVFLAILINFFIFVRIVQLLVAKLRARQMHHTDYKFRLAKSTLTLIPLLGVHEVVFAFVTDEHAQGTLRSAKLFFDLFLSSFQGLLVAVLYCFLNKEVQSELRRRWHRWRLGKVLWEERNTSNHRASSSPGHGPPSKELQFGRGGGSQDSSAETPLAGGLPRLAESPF
FPR1, sequence (P21462 whole entry): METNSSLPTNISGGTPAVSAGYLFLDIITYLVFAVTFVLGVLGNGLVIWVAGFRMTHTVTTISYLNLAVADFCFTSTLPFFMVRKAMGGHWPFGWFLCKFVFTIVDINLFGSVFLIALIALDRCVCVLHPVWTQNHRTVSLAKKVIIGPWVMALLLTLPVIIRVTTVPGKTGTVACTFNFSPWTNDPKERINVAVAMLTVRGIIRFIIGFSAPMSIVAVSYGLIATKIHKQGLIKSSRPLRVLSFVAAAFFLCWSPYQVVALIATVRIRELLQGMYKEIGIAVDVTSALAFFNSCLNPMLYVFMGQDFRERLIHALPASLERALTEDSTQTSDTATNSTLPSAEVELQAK
HRH3, sequence (Q9Y5N1 whole entry): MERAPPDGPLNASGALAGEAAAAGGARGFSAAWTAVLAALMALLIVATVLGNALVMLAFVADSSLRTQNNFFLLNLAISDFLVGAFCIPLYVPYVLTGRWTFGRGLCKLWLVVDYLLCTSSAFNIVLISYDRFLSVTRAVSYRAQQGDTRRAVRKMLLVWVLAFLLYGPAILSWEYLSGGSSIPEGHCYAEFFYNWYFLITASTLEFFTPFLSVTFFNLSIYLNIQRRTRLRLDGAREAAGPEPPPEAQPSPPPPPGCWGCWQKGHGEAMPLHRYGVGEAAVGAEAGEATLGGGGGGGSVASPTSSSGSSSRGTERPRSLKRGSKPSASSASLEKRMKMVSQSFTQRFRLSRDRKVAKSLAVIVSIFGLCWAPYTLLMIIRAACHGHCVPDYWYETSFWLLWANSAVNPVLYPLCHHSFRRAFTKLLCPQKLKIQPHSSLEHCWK
PTGIR, sequence (P43119 whole entry): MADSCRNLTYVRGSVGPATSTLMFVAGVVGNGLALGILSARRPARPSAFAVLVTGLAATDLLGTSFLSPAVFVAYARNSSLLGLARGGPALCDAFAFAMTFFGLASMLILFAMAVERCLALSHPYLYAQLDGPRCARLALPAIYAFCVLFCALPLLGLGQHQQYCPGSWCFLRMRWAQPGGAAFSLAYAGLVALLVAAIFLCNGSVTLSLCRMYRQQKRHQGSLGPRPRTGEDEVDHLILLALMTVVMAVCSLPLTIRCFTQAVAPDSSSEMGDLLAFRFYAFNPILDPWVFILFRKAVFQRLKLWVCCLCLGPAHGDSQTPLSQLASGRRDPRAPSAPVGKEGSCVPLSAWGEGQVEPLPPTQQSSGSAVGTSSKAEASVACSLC
F2RL3, sequence (Q96RI0 18-385): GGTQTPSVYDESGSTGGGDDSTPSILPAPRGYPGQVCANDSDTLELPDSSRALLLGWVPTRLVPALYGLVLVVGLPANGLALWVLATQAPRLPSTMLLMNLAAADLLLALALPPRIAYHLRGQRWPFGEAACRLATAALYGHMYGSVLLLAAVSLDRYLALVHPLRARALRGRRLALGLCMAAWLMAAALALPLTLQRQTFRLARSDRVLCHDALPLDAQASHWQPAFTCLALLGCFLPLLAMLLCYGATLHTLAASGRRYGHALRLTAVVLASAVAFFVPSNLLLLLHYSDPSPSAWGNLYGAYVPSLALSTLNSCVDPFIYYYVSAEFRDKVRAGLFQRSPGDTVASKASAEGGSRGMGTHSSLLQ
PTAFR, sequence (P25105 whole entry): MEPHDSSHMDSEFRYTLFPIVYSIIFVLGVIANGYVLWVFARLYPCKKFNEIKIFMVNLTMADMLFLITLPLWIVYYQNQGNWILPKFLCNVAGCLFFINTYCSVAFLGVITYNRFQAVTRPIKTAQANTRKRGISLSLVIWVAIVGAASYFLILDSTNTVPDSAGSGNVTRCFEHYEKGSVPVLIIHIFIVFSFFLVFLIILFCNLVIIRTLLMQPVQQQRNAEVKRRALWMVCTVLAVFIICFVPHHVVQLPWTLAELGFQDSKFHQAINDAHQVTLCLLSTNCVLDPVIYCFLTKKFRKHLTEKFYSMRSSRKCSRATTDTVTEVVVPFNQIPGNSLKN

Cc1c(Cl)cccc1NC(=O)c1sc2nc3c(cc2c1N)C(=O)CCC3 [Compound 1]
inhibition at 10 µM (HRH3): -14% | inhibition at 10 µM (OPRK1): -162% | inhibition at 10 µM (PTAFR): 2% | inhibition at 10 µM (CCR6): -6% | GI50 (CNS:SF-295): 36.5 nM | inhibition at 10 µM (ADRA2B): -9% | inhibition at 10 µM (GPR1): 7% | inhibition at 10 µM (GPR109A): -13% | GI50 (ME:MDA-MB-435): 18.7 nM | inhibition at 10 µM (SSTR1): -62% | inhibition at 10 µM (CALCRL-RAMP2): -23% | inhibition at 10 µM (AVPR1B): 3% | GI50 (CO:KM12): 67.3 nM | inhibition at 10 µM (CXCR1): 2% | inhibition at 10 µM (PTGIR): 8% | GI50 (ME:SK-MEL-5): 237 nM | inhibition at 10 µM (EDG1): -6% | inhibition at 10 µM (OPRM1): -18% | GI50 (OV:OVCAR-5): 308 nM | inhibition at 10 µM (FPR1): 16% | inhibition at 10 µM (CNR1): 23% | inhibition at 10 µM (F2RL3): 9% | inhibition at 10 µM (GCGR): 12% | GI50 (LE:HL-60(TB)): 103 nM | inhibition at 10 µM (HTR1E): 19% | GI50 (LC:NCI-H522): 22.9 nM | inhibition at 10 µM (PTGFR): -13%
